We go through 30 compounds from patent US7547716B2, “Sulfonamide derivatives” (Institute of Medicinal Molecular Design, Inc., priority 2001, dated 2009).

Structures can show the parent of a compound that is named as a salt.

The assay relates to Jurkat cells. Description: Jurkat cell proliferation, compound alone or combined with bleomycin, living cells counted by MTS method. The class given is cell-based. Set-up: key: ++ indicates observation of remarkable enhancement; + indicates moderated enhancement. As to conditions: enhancement of the decrease in Jurkat cell survival rate by bleomycin 5 μg/ml or 10 μg/ml, 36 hours incubation. As to the method: By using the compounds synthesized above, effects on proliferation of Jurkat cells by sole administration and inhibitory effects on cell proliferation by administration in combination with bleomycin were examined. Materials and methods are as follows. Jurkat cells obtained from Dainippon Pharmaceutical Co. Ltd. were inoculated at about 10,000 cells per well in a 96 well culture plate, and incubated in 10% bovine fetal serum (Irvine Scientific) supplemented with RPMI1640(ICN) medium in 5% CO2 incubator at 37° C. […] 36 hours after the incubation, the number of living cells was counted by the MTS method.
More specifically, 20 μl of CellTiter96™ AQueous One Solution (Promega) was added per one well, and after the cells were incubated for additional one hour, an absorbance at 490 nm was measured by using a microplate reader. The same culture added with DMSO as a solvent at final concentration of 0.25% was used as a control. The number of cells in the control was considered as 100% survival rate, and for each compound, survival rates by sole administration or a combined administration were calculated.
On the technique in general: Tetrazolium assays rely on reduction of a dye to a coloured formazan, in cell work by metabolically active cells.
As for `Nc1cccc2c(S(=O)(=O)NCc3ccc(C(F)(F)F)cc3)cccc12` [Compound 21, 5-amino-N-[[4-(trifluoromethyl)phenyl]methyl]-1-naphthalenesulfonamide hydrochloride], the Activity entry was “++”.

For `COc1cccc(CNS(=O)(=O)c2cccc3c(N)cccc23)c1` [Compound 25, 5-amino-N-[(3-methoxyphenyl)methyl]-1-naphthalenesulfonamide hydrochloride], the Activity entry is given as “++”.

Regarding `COc1ccccc1CNS(=O)(=O)c1cccc2c(N)cccc12` [Compound 24, 5-amino-N-[(2-methoxyphenyl)methyl]-1-naphthalenesulfonamide hydrochloride], the Activity entry is listed as “++”.

Regarding `COc1cc(CNS(=O)(=O)c2cccc3c(N)cccc23)cc(OC)c1` [Compound 31, 5-amino-N-[(3,5-dimethoxyphenyl)methyl]-1-naphthalenesulfonamide hydrochloride], the Activity entry is on record as “++”.

As for `Nc1cccc2c(S(=O)(=O)NCc3cccc(O)c3)cccc12` [Compound 38, 5-amino-N-[(3-hydroxyphenyl)methyl]-1-naphthalenesulfonamide hydrochloride], the Activity entry is listed as “+”.

Regarding `Nc1cccc(CNS(=O)(=O)c2cccc3c(N)cccc23)c1` [Compound 44, 5-amino-N-[(3-aminophenyl)methyl]-1-naphthalenesulfonamide dihydrochloride], the Activity entry is reported as “+”.

For `Nc1cccc2c(S(=O)(=O)Nc3ccccc3)cccc12` [Compound 64, 5-amino-N-phenyl-1-naphthalenesulfonamide hydrochloride], the Activity result is given as “+”.

In the case of `Nc1cccc2c(S(=O)(=O)NCc3cccc([N+](=O)[O-])c3)cccc12` [Compound 41, 5-amino-N-[(3 nitrophenyl)methyl]-1-naphthalenesulfonamide hydrochloride], the Activity result is “++”.

As to `Nc1cccc2c(S(=O)(=O)NCc3ccc([N+](=O)[O-])cc3)cccc12` [Compound 42, 5-amino-N-[(4-nitrophenyl)methyl]-1-naphthalenesulfonamide hydrochloride], the Activity result is “++”.

With `Nc1cccc2c(S(=O)(=O)NCc3ccc(C(=O)O)cc3)cccc12` [Compound 48, 4-[[[(5-amino-1-naphthalenyl)sulfonyl]-amino]methyl]benzoic acid hydrochloride], the Activity entry is given as “+”.

In the case of `Nc1cccc2c(S(=O)(=O)NCc3cc(F)cc(F)c3)cccc12` [Compound 14, 5-amino-N-[(3,5-difluorophenyl)methyl]-1-naphthalenesulfonamide hydrochloride], the Activity result is “+”.

Regarding `COc1cccc(CNS(=O)(=O)c2cccc3c(N)cccc23)c1OC` [Compound 28, 5-amino-N-[(2,3-dimethoxyphenyl)methyl]-1-naphthalenesulfonamide hydrochloride], the Activity result was “++”.

For the compound `Nc1cccc2c(S(=O)(=O)NCc3cccc(OCc4ccccc4)c3)cccc12` [Compound 35, 5-amino-N-[[3-(phenylmethoxy)phenyl]methyl]-1-naphthalenesulfonamide hydrochloride], the Activity entry is “+”.

As for `Nc1cccc2c(S(=O)(=O)NCc3ccccn3)cccc12` [Compound 53, 5-amino-N-(2-pyridinylmethyl)-1-naphthalenesulfonamide dihydrochloride], the Activity entry is reported as “+”.

Consider `Nc1cccc2c(S(=O)(=O)NCc3ccc(Cl)cc3Cl)cccc12` [Compound 6, 5-amino-N-[(2,4-dichlorophenyl)methyl]-1-naphthalenesulfonamide hydrochloride], for which the Activity entry was “++”.

On to `Nc1cccc2c(S(=O)(=O)NCc3cccc4ccccc34)cccc12` [Compound 1, 5-amino-N-[(1-naphthalenyl)methyl]-1-naphthalenesulfonamide hydrochloride], for which the Activity result is “+”.

Regarding “5-amino-N-[(2-fluorophenyl)methyl-1-naphthalenesulfonamide hydrochloride [Compound 9]”, the Activity entry was “+”.

As to `CC(NS(=O)(=O)c1cccc2c(N)cccc12)c1cccc2ccccc12` (stereo not drawn) [Compound 56, 5-amino-N-[1-(1-naphthalenyl)ethyl]-1-naphthalenesulfonamide hydrochloride], the Activity result is on record as “+”.

Consider “5-amino-N-[[[4′-methyl-1,1′-biphenyl]-2-yl]methyl]-1-naphthalenesulfonamide hydrochloride [Compound 23]”, for which the Activity result is “+”.

As to `Nc1cccc2c(S(=O)(=O)NCc3c(F)cccc3F)cccc12` [Compound 12, 5-amino-N-[(2,6-difluorophenyl)methyl]-1-naphthalenesulfonamide hydrochloride], the Activity result is “++”.

On to `Nc1ccccc1CNS(=O)(=O)c1cccc2c(N)cccc12` [Compound 43, 5-amino-N-[(2-aminophenyl)methyl]-1-naphthalenesulfonamide dihydrochloride], for which the Activity entry is recorded as “+”.

For the compound `CC(C)(C)c1ccc(CNS(=O)(=O)c2cccc3c(N)cccc23)cc1` [Compound 18, 5-amino-N-[[4-(1,1-dimethylethyl)phenyl]methyl]-1-naphthalenesulfonamide hydrochloride], the Activity entry is “++”.

For `Nc1cccc2c(S(=O)(=O)NCc3ccccc3C(F)(F)F)cccc12` [Compound 19, 5-amino-N-[[2-(trifluoromethyl)phenyl]methyl]-1-naphthalenesulfonamide hydrochloride], the Activity entry is “++”.

Turning to `Nc1cccc2c(S(=O)(=O)NC3CCCc4ccccc43)cccc12` (stereo not drawn) [Compound 58, 5-amino-N-(1,2,3,4-tetrahydro-1-naphthalenyl)-1-naphthalenesulfonamide], the Activity entry is “+”.

As for `Nc1cccc2c(S(=O)(=O)NCc3ccccc3Cl)cccc12` [Compound 3, 5-amino-N-[(2-chlorophenyl)methyl]-1-naphthalenesulfonamide hydrochloride], the Activity entry is “+”.

For the compound `COc1ccc(CNS(=O)(=O)c2cccc3c(N)cccc23)cc1` [Compound 26, 5-amino-N-[(4-methoxyphenyl)methyl]-1-naphthalenesulfonamide hydrochloride], the Activity entry is listed as “+”.

In the case of `CC(NS(=O)(=O)c1cccc2c(N)cccc12)c1ccccc1` (stereo not drawn) [Compound 55, 5-amino-N-(1-phenylethyl)-1-naphthalenesulfonamide], the Activity result is listed as “+”.

`Nc1cccc2c(S(=O)(=O)NCc3ccc(Cl)cc3)cccc12` [Compound 5, 5-amino-N-[(4-chlorophenyl)methyl]-1-naphthalenesulfonamide hydrochloride]: the Activity result is given as “+”.

As to `Cc1ccccc1CNS(=O)(=O)c1cccc2c(N)cccc12` [Compound 15, 5-amino-N-[(2-methylphenyl)methyl]-1-naphthalenesulfonamide hydrochloride], the Activity result is on record as “+”.

Turning to `Nc1cccc2c(S(=O)(=O)NCc3ccc(OCc4ccccc4)cc3)cccc12` [Compound 36, 5-amino-N-[[4-(phenylmethoxy)phenyl]methyl]-1-naphthalenesulfonamide hydrochloride], the Activity result was “+”.
